Assays:
[1] = test system: human neonatal fibroblast cells (NFFs); experiment: Western blot of signalling molecules in human neonatal fibroblasts; assay type: cell-based; details: 10 or 30 ng/mL
Method: The Western Blot method was used to identify effects of Compounds 1 and 42 on proteins relevant to would repair and healing in human neonatal fibroblast cells (NFFs). Two studies were conducted. In the first study; NFFs were treated with either 10 or 30 ng Compound 1/mL for 6 or 24 hours, before harvesting and protein extraction. In the second study NFFs were treated individually with 30 ng/mL concentrations of Compounds 1 and 42 respectively for 6 hours. The resulting lysates from both studies were subjected to western blot analysis, and probing with specific antibodies to key signalling molecules involved in wound repair and healing.
The medium from adherent human neonatal fibroblasts grown in 75 cm^2 plates was removed and the cells were washed twice in ice cold PBS. The attached cells were harvested in 10 mL of ice cold PBS using a cell scraper (Costar, Corning) pelleted by centrifugation for 5 min (1,500 rpm, RTemp), resuspended in 1 mL of ice-cold PBS, and transferred to a 1.5 mL microfuge tube.
The cells were collected by centrifugation (13,200 rpm, RTemp, 2 s), the PBS removed and the pellets stored at −20° C. until required.
The frozen pellets were thawed on ice, and resuspended in a volume of cell lysis buffer 3-4 times the volume of the pellet by pipetting up and down. The cell suspension was sonicated 60 s at 4° C. and centrifuged for 20 min (13,200 rpm, 4° C.) and the […] containing the protein transferred to a fresh 1.5 ml microfuge tube. The protein was stored at −20° C.
Protein samples were diluted 1/10 and 1/20 (v/v) in MilliQ water and 10 μL was plated out in duplicate in. a flat-bottomed 96-well plate (Costar®, Corning). Stock solutions of bovine serum albumin (BSA) were prepared at 100, 200, 400, 600, 1,000, and 1,200 μg/mL and 10 μL/well plated out in duplicate and assayed alongside the samples. […] The raw absorbances were read at A590 nm on a microplate reader (VERSAmax, Molecular Devices) and a standard curve produced using SOFTmax PRO software (Molecular Devices). […]

[2] = test system: immortalised human keratinocyte cells (HaCaT); experiment: Scratch repopulation and closure with HaCaT; assay type: cell-based; details: 48 hours, ± standard error
Method: The ability of immortalised human keratinocyte cells (HaCaT) to migrate across a scratch wound made in a confluent monolayer following treatment with either Compound 1 or Compound 37 was determined by the following method.
Trypsinised HaCaT cells were seeded at a cell density of 7.4×10^4 cells/mL in 24-well BD Falcon flat-bottomed, tissue culture plates (VWR International, UK) in 1 mL Dulbecco's Modified Eagle Medium (DMEM), supplemented with L-glutamine (2 mM), antibiotics (100 U/mL penicillin G sodium, 100 μg/mL streptomycin sulphate and 0.25 μg/mL amphotericin B); and 10% foetal calf serum (all Invitrogen Ltd., UK) to give a cell density of 7.4×10^4 cells seeded in each well. The cells were then maintained at 37° C. in a 5% CO2/95% air atmosphere overnight. The following morning, the 10% foetal calf serum-containing DMEM was replaced with serum-free DMEM and the HaCaT cells were subsequently serum-starved in DMEM for 48 hr.
After 48 hr, the serum-free DMEM was removed and a single scratch ‘wound’ made with a sterile pipette across each cell layer. Following washing twice in 1 mL PBS, Compound 1- or Compound 37-containing medium (1 mL) was added to each well. This medium consisted of DMEM, supplemented with L-glutamine (2 mM), antibiotics (as above) and 1% foetal calf serum, in addition to Compound 1 or Compound 37 at final concentrations of 0, 0.001, 0.01, 0.1, 1.0, 10 or 100 μg/mL. There were three replicate wells per concentration for each compound.
The HaCaT cultures were maintained at 37° C. in a 5% CO2/95% air atmosphere and the repopulation of the denuded ‘wound’ areas monitored by Time-Lapse Confocal Microscopy (Leica TCS SP5 Confocal Microscope; Leica Microsystems UK Ltd., UK) at 100× magnification, with digital images captured at fixed positions every 20 min over a 48 h period. The digital image sequences were exported and prepared as .avi movie files, using LAS AF Software (Leica Microsystems). The rates of HaCaT wound closure in vitro were quantified using ImageJ Software (ImageJ 1.37v; http://rsb.info.nih.gov/ij/). The data was analysed by One Way Analysis of Variance with post-test Tukey analysis. Each experiment was performed on 3 separate occasions.

## CC=C(C)C(=O)OC1C(C)C2(O)C(C3OC3(CO)C(O)C3(O)C(=O)C(C)=CC32)C2C(C)(C)C12OC(=O)C(C)CC (centres unmarked) [Compound 1, 12-tigloyl-13-(2-methylbutanoyl)-6,7-epoxy-4,5,9,12,13,20-hexahydroxy-1-tigliaen-3-one]
[1]; 6 or 24 hours
  levels of MMP9 (Western blot): No difference
[1]; 6 hours
  activation of MEK1/2 and ERK/2 (Western blot): transient activation
[1]; 24 hours
  activation of MEK1/2 and ERK/2 (Western blot): down-regulation of activation
[2]; 0.001 μg/ml
  % of scratch wound area remaining open after treatment: 8.6 ± 9.4%
[2]; 0.01 μg/ml
  % of scratch wound area remaining open after treatment: 19.7 ± 9.3%
[2]; 0.1 μg/ml
  % of scratch wound area remaining open after treatment: 21.4 ± 5.8%
[2]; 1.0 μg/ml
  % of scratch wound area remaining open after treatment: 35.4 ± 7.9%
[2]; 10 μg/ml
  % of scratch wound area remaining open after treatment: 45.5 ± 7.3%

From patent US10822317B2, “Methods and compositions for wound healing” (QBiotics Limited, priority 2013, dated 2020)
